Data from paper PMC12289066, “Identification of glutathione transferase (GST P1) inhibitors via a high-throughput screening assay and implications as alternative treatment options for breast cancers” (PLOS One, 2025).

Biological target: T1, GST P1-1 (Homo sapiens, UniProt P09211)
T1 construct: purchased Sigma-Aldrich
Experiment: High-throughput GST P1-1 inhibition assay (384-well screen, CDNB/GSH)
Assay type: biochemical
Conditions: compound 10 μM; score 0 = negative control (DMSO), 1 = positive control (EA 50 μM); average of duplicate
Protocol: Each drug compound was added to the respective well at a volume of 80 nL of 10 mM stock solution in DMSO, yielding a final compound concentration of 10 μM and a final DMSO concentration of 0.1%. Each plate’s first and last two columns were used as negative (no compound added – 80 nL per well of DMSO) and positive (80 nL of EA added with a final concentration of 50 μM) controls, respectively. The Gyger Certus Flex dispenser was set up using a freshly prepared 1 mM of GSH and 20 nM of GST P1-1, pH 7.4, in one syringe and 8 mM CDNB solution in pure ethanol in the other syringe. Into each well 80 μL of GST-GSH solution was dispensed and incubated at 25°C for 20 minutes before the reaction was initiated by the addition of 4 μL of CDNB solution. The plates were incubated for 2 h in the dark at 25°C and then the absorbance was of each well recorded on a BioTek Synergy NEO HTS multimode plate reader (Agilent®) at a wavelength of 340 nm.
The z’factor was calculated for each plate according to Zhang et al.. The Z-factor is a dimensionless, simple statistical characteristic for each HTS assay. This provides a valuable tool for the comparison and assessment of the quality of assays, and can be utilized in assay optimization and validation. For each plate, the concentration of product was normalized by assigning a score of 0 (0%) to the negative control (average of maximal concentration of product measured in the presence of enzyme without any inhibitor) and a score of 1 (100%) was assigned to the positive control (average minimal concentration of product measured in the presence of enzyme with the reference inhibitor, i.e., EA). The experiment was performed in duplicate and the score for each drug compound was calculated as an average ± standard deviation. […] An internal laboratory information management system (LIMS) was used for basic data processing, management, visualization, and statistical hit validation.

T1 sequence (P09211 2-210 limits assumed): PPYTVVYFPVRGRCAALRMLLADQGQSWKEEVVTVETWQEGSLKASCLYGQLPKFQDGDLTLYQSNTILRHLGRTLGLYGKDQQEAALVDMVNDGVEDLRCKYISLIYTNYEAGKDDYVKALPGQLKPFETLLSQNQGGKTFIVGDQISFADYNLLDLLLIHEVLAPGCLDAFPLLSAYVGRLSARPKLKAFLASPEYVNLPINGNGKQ

Compound	Score
O=C(O)C(Cc1ccccc1[N+](=O)[O-])=NNc1nc(-c2ccc(Cl)c(Cl)c2)cs1 (mixture of isomers) [4EGI-1]	0.730
CC#C[C@@H](CC(=O)[O-])c1ccc(OCc2cccc(-c3ccc(C(F)(F)F)cc3)c2)cc1.CC#C[C@@H](CC(=O)[O-])c1ccc(OCc2cccc(-c3ccc(C(F)(F)F)cc3)c2)cc1.O.[Ca+2] [AMG 837 (calcium hydrate)]	0.783
NC[C@@](O)(c1ccc(Cl)cc1)c1ccc(-c2cn[nH]c2)cc1 [AT13148]	0.738
O=C1c2c(O)cccc2Cc2cccc(O)c21 [Anthralin]	0.694
CC(C)(c1ccc(OCC2CO2)cc1)c1ccc(OCC2CO2)cc1 (stereo not drawn) [BADGE]	0.715
Oc1c(Cl)cc(Cl)cc1Sc1cc(Cl)cc(Cl)c1O [Bithionol]	1.007
O=C1C=Cc2cc(Br)ccc2C1=O [Bonaphthone]	0.770
CCN(CC)c1ccc(C(=C2C=CC(=[N+](CC)CC)C=C2)c2ccccc2)cc1 [Brilliant-green]	0.783
CCOC(=O)Nc1cc(-c2ccc(C)c(NS(C)(=O)=O)c2)nn2c(C)nnc12 [Bromosporine]	0.801
CC(C)(C)c1ccc(CN2CCN(C(c3ccccc3)c3ccc(Cl)cc3)CC2)cc1 (stereo not drawn) [Buclizine]	0.694
O=C(O)c1ccc(-c2ccc3cc(O)c(C45CC6CC(CC(C6)C4)C5)cc3c2)cc1 [CD-1530]	0.979
O=C(O)C1(c2ccc(-c3ccc(Cl)c(Cl)c3)c(F)c2)CC1 [CHF5074]	0.911
COc1cc(-c2ccc(N=Nc3ccc4c(S(=O)(=O)[O-])cc(S(=O)(=O)[O-])c(N)c4c3O)c(OC)c2)ccc1N=Nc1ccc2c(S(=O)(=O)[O-])cc(S(=O)(=O)[O-])c(N)c2c1O.[Na+].[Na+].[Na+].[Na+] [Chicago sky blue 6B]	0.863
CCCCCC/C=C/C=C\CCCCCCCC(=O)O [Cis-9,trans-11-Conjugated-linoleic-acid]	0.796
O=c1c(-c2ccccc2)c1-c1ccccc1 [Diphencyprone]	0.744
CC/C=C\C/C=C\C/C=C\C/C=C\C/C=C\C/C=C\CCC(=O)O [Docosahexaenoic Acid]	0.821
CC(C)c1cccc2c(-c3ccccc3)cc(-c3ccc(-c4ccc(C(=O)O)cc4)[nH]3)nc12 [ER-50891]	0.927
CC1=NN(c2ccccc2)C(=O)C1 [Edaravone]	0.958
O=C1OC2(c3ccccc31)c1cc(I)c(O)c(I)c1Oc1c2cc(I)c(O)c1I [Erythrosine]	0.828
Cc1cc(-c2ccc(/N=N/c3ccc4c(S(=O)(=O)O)cc(S(=O)(=O)O)c(N)c4c3O)c(C)c2)ccc1/N=N/c1ccc2c(S(=O)(=O)O)cc(S(=O)(=O)O)c(N)c2c1O [Evans Blue]	0.783
CCOc1c2c(c(OCC)c3ccccc13)C(=O)N(c1ccc(CC(=O)NS(=O)(=O)c3ccccc3)cc1)C2 [GW627368]	0.854
CC(C)c1onc(-c2c(Cl)cccc2Cl)c1COc1ccc(/C=C/c2cccc(C(=O)O)c2)c(Cl)c1 [GW 4064]	0.702
CC1=C(CCC(=O)O)c2cc3[nH]c(cc4nc(cc5[nH]c(cc1n2)c(C)c5C(C)O)C(C)=C4C(C)O)c(C)c3CCC(=O)O (stereo not drawn) [Hematoporphyrin]	0.758
O=C(NCc1ccc(Oc2ccccc2)cc1)c1nc(-c2cc(Br)c(O)c(Br)c2)no1 [IOWH-032]	0.901
Oc1ccc2ccccc2c1SSc1c(O)ccc2ccccc12 [IPA-3]	0.881
C=CC(=O)c1ccc2ccccc2c1 [JAK3-inhibitor-V]	0.817
Cc1noc(-c2ccc(CSCCC(=O)O)cc2)c1NC(=O)OC(C)c1ccccc1Cl (stereo not drawn) [Ki16425]	0.710

Compound	Score
CC[C@@H](C(=O)[C@@H](C)[C@@H](O)[C@H](C)CCc1ccc(C)c(O)c1C(=O)O)[C@H]1O[C@](CC)([C@H]2CC[C@](O)(CC)[C@H](C)O2)C[C@@H]1C [Lasalocid]	0.863
O=[N+]([O-])/C=C/c1ccc2c(c1)OCO2 [MNS]	0.850
COc1cc(C[C@H](C)[C@H](C)Cc2ccc3c(c2)OCO3)ccc1O [Macelignan]	0.803
O=C([O-])c1ccccc1-c1c2cc(Br)c(=O)cc-2oc2[c]([Hg+])c([O-])c(Br)cc12.[Na+].[Na+].[OH-] [Merbromin]	0.993
Cc1cc(=O)n(-c2ccccc2)[nH]1 [N-demethylantipyrine]	1.019
O=C(Nc1cccc(C(F)(F)F)c1)Nc1ccc(Br)cc1-c1nn[nH]n1 [NS-3623]	0.752
CCCCCCCCCCCCc1ccc(S(=O)(=O)Nc2nncs2)cc1 [PHT-427]	0.696
CC1(C)CCC(C)(C)c2cc(Cn3cccn3)c(/C=C/c3ccc(C(=O)O)cc3)cc21 [Palovarotene]	0.763
C=CC1=C(C)c2cc3[nH]c(cc4nc(cc5[nH]c(cc1n2)c(C)c5CCC(=O)O)C(CCC(=O)O)=C4C)c(C)c3C=C [Protoporphyrin IX]	0.914
CC1(C)CC[C@]2(NC(=O)C(C)(F)F)CC[C@]3(C)[C@H](C(=O)C=C4[C@@]5(C)C=C(C#N)C(=O)C(C)(C)[C@@H]5CC[C@]43C)[C@@H]2C1 [RTA-408]	0.807
O=C1OC2(c3cc(I)c(O)c(I)c3Oc3c2cc(I)c(O)c3I)c2c(Cl)c(Cl)c(Cl)c(Cl)c21 [Rose-bengal-lactone]	0.937
O=C1OC2(c3cc(I)c(O)c(I)c3Oc3c2cc(I)c(O)c3I)c2c(Cl)c(Cl)c(Cl)c(Cl)c21 [Rse-bengal]	0.996
N[C@@H](Cc1cc(-c2ccc(Cl)cc2Cl)cc(CP(=O)(O)O)c1O)C(=O)O [SDZ-220-040]	0.871
Oc1ccc(Nc2nc(-c3ccc(Cl)cc3)cs2)cc1 [SKI II]	0.694
CC1=C(/C=C/C(=C/C=C/C(C)=C/C(=O)O)c2ccc(C)cc2)C(C)(C)CCC1 [SR-11302]	0.733
O=C(/C=C/c1ccccc1)NC(NC(=S)Nc1ccc(Cl)cc1)C(Cl)(Cl)Cl (stereo not drawn) [Sal003]	0.865
CC(C)=CCC/C(C)=C/CC/C(C)=C/CSc1ccccc1C(=O)O [Salirasib]	0.717
O=C1C(CC[S+]([O-])c2ccccc2)C(=O)N(c2ccccc2)N1c1ccccc1 (stereo not drawn) [Sulfinpyrazone]	0.823
O=S(=O)(O)c1ccc(-c2c3nc(c(-c4ccc(S(=O)(=O)O)cc4)c4ccc([nH]4)c(-c4ccc(S(=O)(=O)O)cc4)c4nc(c(-c5ccc(S(=O)(=O)O)cc5)c5ccc2[nH]5)C=C4)C=C3)cc1 [TPPS4]	0.809
Cc1c(S(=O)(=O)O)oc2c1C(=O)C(=O)c1c-2ccc2c1CCCC2(C)C [Tanshinone IIA sulfonate (sodium), Tanshinone IIA sulfonate]	0.981
Oc1cccc(-c2c3nc(c(-c4cccc(O)c4)c4ccc([nH]4)c(-c4cccc(O)c4)c4nc(c(-c5cccc(O)c5)c5ccc2[nH]5)CC4)C=C3)c1 [Temoporfin]	0.699
O=C(O)C(=O)c1cn(Cc2ccccc2)c2ccc(-c3ccc(OC(F)(F)F)cc3)cc12 [Tiplaxtinin]	0.836
O=C(Nc1ccc(Cl)cc1)Nc1ccc(Cl)c(Cl)c1 [Triclocarban]	0.702
Cc1cc(F)c(Nc2ncnc3cc(OCc4ccccc4)ccc23)cc1O.Cl [ZM323881 (hydrochloride)]	0.946
COc1cc(C(=O)NS(=O)(=O)c2ccccc2C)ccc1Cc1cn(C)c2ccc(NC(=O)OC3CCCC3)cc12 [Zafirlukast]	0.801
AS-2034178	0.982
TC-I-2000	0.729
